Data set [1] can be described thus: Cytotoxicity against BALB/C mouse B lymphocytes assessed as cell viability at 40 uM after 8 to 10 hrs by CCK-8 assay relative to control. As to conditions: read-out: Activity. It is filed as cell-based.
A short description of data set [2]: Cytotoxicity against BALB/C mouse T lymphocytes assessed as cell viability at 40 uM after 8 to 10 hrs by CCK-8 assay relative to control. The conditions noted are these: read-out: Activity. It is filed as cell-based.
A further data set deals with T-cell. The experiment in a line: Immunosuppressive activity against BALB/C mouse T lymphocytes assessed as reduction in concanavalin A-induced cell proliferation by measuring [3H]-thymidine uptake incubated for 8 hrs by Beta scintillation counting method. It is filed as functional, cell-based.
In a further data set the test system is B-cell line. Nature of the data set: Immunosuppressive activity against BALB/C mouse B lymphocytes assessed as reduction in LPS-induced cell proliferation by measuring [3H]-thymidine uptake incubated for 8 hrs by Beta scintillation counting method. It is filed as functional, cell-based.

The record followed here is ChEMBL document CHEMBL4602661, “Immunosuppressive Nor-isopimarane Diterpenes from Cultures of the Fungicolous Fungus Xylaria longipes HFG1018” (J Nat Prod, 2020).

On to `CC1(O)CCC[C@]2(C)C3=C(C[C@@]4(C)CCO[C@@H]3C4)[C@@H](O)C[C@@H]12` (stereo partly drawn), for which the viability at 40 µM in data set [1] and in data set [2] was more than 85% each time.

Regarding `C=C1CC[C@H]2[C@@](C)(CO)CCC[C@]2(C)[C@H]1CC/C(C)=C/CO`, the results for the IC50 with T-cell and in the data set on B-cell line were 15.6 µM and 47.2 µM, respectively. Further, the viability at 40 µM in data set [1] and in data set [2] was more than 85% each time.

As to `C[C@@]12CCO[C@@H]1C1=CC[C@H]3[C@](C)(O)[C@H](O)CC[C@]3(C)[C@H]1CC2`, the viability at 40 µM in data set [1] and in data set [2] was more than 85% throughout.

On to `C[C@]1(CCO)CCC2=C(C1)C(=O)C[C@H]1[C@](C)(O)CCC[C@]21C`, for which the viability at 40 µM in data set [1] and in data set [2] was more than 85% each time.

Consider `C[C@]1(CCO)CC[C@H]2C(=CC[C@@H]3[C@]2(C)CCC[C@@]3(C)O)C1`, for which the IC50 in the data set with T-cell was determined as 1 µM; in the data set with B-cell line, 16.1 µM. The viability at 40 µM in data set [1] and in data set [2] was more than 85% each time.

On to `C[C@@]12CCO[C@@H]1C1=CC[C@H]3[C@](C)(CO)CCC[C@]3(C)[C@H]1CC2`, for which the viability at 40 µM in data set [1] and in data set [2] was more than 85% throughout.

Regarding `C[C@@]12CCO[C@@H]1C1=CC[C@H]3[C@@](O)(CO)CCC[C@]3(C)[C@H]1CC2`, the IC50 in the data set on T-cell worked out at 11.1 µM; in the data set with B-cell line, 35.1 µM. For the same compound, the viability at 40 µM in data set [1] and in data set [2] was more than 85% throughout.

Turning to `C[C@@]12CCO[C@@H]1C1=CC[C@@H]3[C@](C)(CCC[C@@]3(C)O)[C@H]1CC2`, the half-inhibitory concentration (IC50) in the data set on T-cell came out at 27.2 µM; in the data set on B-cell line, 40 µM. In addition, the viability at 40 µM in data set [1] and in data set [2] was more than 85% each time.

`C[C@@]12CCO[C@@H]1C1=CC[C@H]3[C@@](C)(O)[C@@H](O)CC[C@]3(C)[C@H]1CC2`: the viability at 40 µM in data set [1] and in data set [2] was more than 85% in each case.

Regarding `C[C@@]12CCO[C@@H]1C1=CC[C@@H]3[C@](C)(CCC[C@]3(C)O)[C@H]1CC2`, the IC50 with T-cell was determined as 21.1 µM; in the data set with B-cell line, 51.8 µM. The viability at 40 µM in data set [1] and in data set [2] was more than 85% in each case.

Consider `C[C@]12CC[C@H]3C(=CC[C@@H]4[C@]3(C)CCC[C@@]4(C)O)[C@H]1OC[C@@H]2O`, for which the viability at 40 µM in data set [1] and in data set [2] was more than 85% throughout.

As for `C[C@@]12CCO[C@@H]1C1=CC[C@H]3[C@](C)(O)[C@@H](O)CC[C@]3(C)[C@H]1CC2`, the viability at 40 µM in data set [1] and in data set [2] was more than 85% in each case.

As to `C[C@]12CCC[C@@](C)(O)[C@@H]1CC=C1[C@H]3OC[C@@H](O)[C@@]3(C)CC[C@@H]12`, the IC50 was 4 µM in the data set on T-cell and 46 µM in the data set with B-cell line. For the same compound, the viability at 40 µM in data set [1] and in data set [2] was more than 85% throughout.

On to `C[C@@]12CCO[C@@H]1C1=C[C@@H](O)[C@@H]3[C@](C)(CCC[C@]3(C)O)[C@H]1CC2`, for which the IC50 in the data set with T-cell was determined as 14.9 µM; in the data set with B-cell line it was 49.4 µM. In addition, the viability at 40 µM in data set [1] and in data set [2] was more than 85% in each case.

For `C[C@@]1(CCO)CC2=CC[C@@H]3[C@](C)(CCC[C@@]3(C)O)[C@H]2[C@H](O)C1`, the viability at 40 µM in data set [1] and in data set [2] was more than 85% each time.

Consider `C[C@@]12CCO[C@@H]1C1=CC[C@H]3[C@H](O)CCC[C@]3(C)[C@H]1CC2`, for which the viability at 40 µM in data set [1] and in data set [2] was more than 85% each time.

In the case of `C[C@]1(CCO)CC[C@H]2C(=CC[C@@H]3[C@]2(C)CCC[C@]3(C)O)C1`, the viability at 40 µM in data set [1] and in data set [2] was more than 85% in each case.

For `C[C@]1(CCO)CC[C@H]2C(=CC[C@H]3[C@H](O)CCC[C@]23C)C1`, the viability at 40 µM in data set [1] and in data set [2] was more than 85% each time.

For the compound `C[C@@]12CCO[C@@H]1C1=CC[C@H]3[C@H](CO)CCC[C@]3(C)[C@H]1CC2`, the IC50 worked out at 6.6 µM with T-cell and 38.2 µM with B-cell line. In addition, the viability at 40 µM in data set [1] and in data set [2] was more than 85% in each case.

Take `C[C@]1(CCO)CC=C2C(=CC[C@H]3[C@](C)(O)CCC[C@]23C)C1`: the viability at 40 µM in data set [1] and in data set [2] was more than 85% throughout.

Turning to `C[C@@H]1C[C@H]2[C@@H]3CCC4=CC(=O)C=C[C@]4(C)[C@@]3(F)[C@@H](O)C[C@]2(C)[C@@]1(O)C(=O)CO` [DEXAMETHASONE], the IC50 in the data set with T-cell came to 1.6 µM; with B-cell line, 0.8 µM.
